Each structure is given as a SMILES string. Where a chain is given by its changes, count along the chain named.

Experimental findings from paper PMC4291487, “Stress-induced ceramide generation and apoptosis via the phosphorylation and activation of nSMase1 by JNK signaling” (Cell Death and Differentiation, 2014) are described below.

Holding throughout (type): biochemical
One experiment addresses T1, mouse JNK1 (Mus musculus, UniProt Q91Y86).
T1 construct: gene Mapk8; commercial recombinant protein (Cell Signaling Technology)
To be noted: 10 μM SP600125; 0.25 mM ATP, 10 mM MgCl2, pH 7.4, 30 °C, 30 min.

Experiment [1] deals with T2, nSMase1 (wild-type), zebrafish (Danio rerio, UniProt F1QUD7, S270A).
T2 construct: gene smpd2a; zebrafish cDNA
T2 sequence (F1QUD7 1-421 S270A): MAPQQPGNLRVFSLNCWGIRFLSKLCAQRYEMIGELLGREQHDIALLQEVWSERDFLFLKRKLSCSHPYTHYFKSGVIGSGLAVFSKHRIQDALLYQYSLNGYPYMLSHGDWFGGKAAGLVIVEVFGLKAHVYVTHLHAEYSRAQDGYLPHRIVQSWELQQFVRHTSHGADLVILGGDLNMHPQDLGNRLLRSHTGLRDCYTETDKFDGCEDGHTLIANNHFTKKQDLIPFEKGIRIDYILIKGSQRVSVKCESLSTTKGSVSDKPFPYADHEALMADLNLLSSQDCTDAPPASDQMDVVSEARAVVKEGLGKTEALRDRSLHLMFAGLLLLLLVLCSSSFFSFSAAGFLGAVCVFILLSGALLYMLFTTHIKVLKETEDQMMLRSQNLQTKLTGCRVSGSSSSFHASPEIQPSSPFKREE
Description: C6-NBD-ceramide release assay. Conditions: 37 °C; basal enzyme, not JNK-treated.

Experiment [2] addresses T3, nSMase1 (wild-type), zebrafish (Danio rerio, UniProt F1QUD7).
T3 construct: gene smpd2a; zebrafish cDNA
T3 sequence (F1QUD7 1-421): T2 sequence (F1QUD7 1-421 S270A) with A270S
Kind of experiment: C6-NBD-ceramide release assay. Conditions: 37 °C; basal enzyme, not JNK-treated.

T1 sequence (Q91Y86 whole entry): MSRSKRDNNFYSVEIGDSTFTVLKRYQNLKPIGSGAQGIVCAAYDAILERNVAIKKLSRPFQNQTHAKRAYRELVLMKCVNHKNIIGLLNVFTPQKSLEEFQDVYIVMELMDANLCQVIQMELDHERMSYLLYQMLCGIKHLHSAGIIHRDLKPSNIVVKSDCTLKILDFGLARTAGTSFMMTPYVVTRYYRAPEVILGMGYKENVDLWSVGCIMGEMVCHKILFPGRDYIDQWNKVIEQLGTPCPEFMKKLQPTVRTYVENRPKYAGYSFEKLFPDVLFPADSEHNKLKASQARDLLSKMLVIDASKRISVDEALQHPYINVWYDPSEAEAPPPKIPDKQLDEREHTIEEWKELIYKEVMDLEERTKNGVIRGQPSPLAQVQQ

Regarding `O=C1c2ccccc2-c2n[nH]c3cccc1c23` [SP600125, Anthra[1,9-cd]pyrazol-6(2H)-one], the “phosphorylation inhibition at 10 μM” value at mouse JNK1 is on record as “wild-type pulsed with SP600125 were not phosphorylated”.
Turning to `CCCCCCCCCCCCC/C=C/[C@@H](O)[C@H](COP(=O)([O-])OCC[N+](C)(C)C)NC(=O)CCCCCNc1ccc([N+](=O)[O-])c2nonc12` [C6-NBD-sphingomyelin], the C6-NBD-ceramide release assay result in experiment [1] and in experiment [2] was “nSMase activities of the recombinant proteins were determined using C6-NBD-sphingomyelin” each time.
